Measurements published in paper PMC4016139, “Inhibition of K^+ Transport through Na^+, K^+-ATPase by Capsazepine: Role of Membrane Span 10 of the α-Subunit in the Modulation of Ion Gating” (PLoS ONE, 2014).

System: T1, Na+,K+-ATPase of adult rat ventricular myocytes
T1 construct: gene Atp1a1; native pump in isolated adult male ventricular myocytes, whole-cell patch clamp; with Sodium/potassium-transporting ATPase subunit beta-1
Experiment: whole-cell ruptured-patch pump current (K+-dependent Ip)
Type: cell-based
Details: 10 min perfusion, 5 mM external K+, 140 mM NaCl, pH 7.2, 35 °C

Structure (SMILES): Oc1cc2c(cc1O)CN(C(=S)NCCc1ccc(Cl)cc1)CCC2 [Capsazepine]
- % inhibition at 30 μM: 85%
